The source of these data is patent publication US11304935B2 (UNIVERSITY OF SOUTH CHINA, priority 2018, dated 2022).

This test relates to pentylenetetrazole-induced epilepsy. Briefly: Pentylenetetrazole-induced epilepsy model mice. The settings on record: I-BRD9 10, 15, 20 mg/kg i.p. or s.c. 1 h before 45 mg/kg pentylenetetrazole i.p., compared with epilepsy model group. Format: in vivo, C57BL/6 mice. The source says: In the present disclosure, the animals are all 8-week-old healthy male C57BL/6 mice, weighing 22-24 grams, all purchased from Hunan SJD laboratory animal Co. LTD., license number: SCXK (Xiang) 2016-0002. C57BL/6 mice in different groups were all feed in an artificial day and night 12-hour circular lighting environment (7:00 AM-7:00 PM). The mice in the groups and were kept in cages, 4-6 mice per cage. In the cages, the mice had free access to food and water; and the daily food and water were changed regularly
Animals in each group were administered with corresponding dosage of drugs or vehicle by intraperitoneal or subcutaneous injection. 1 h later, 45 mg/kg of pentylenetetrazole was intraperitoneally injected. The behaviors and conditions of the animals were observed. Later, changes of mice behaviors were closely observed through video monitoring system for 1 h, and seizure level was evaluated by Racine grading standard. The incubation period (started after the completion the administration of pentylenetetrazole, and ended by the first time muscle spasm occurred), seizure level (subjected to the highest level) and duration period of the seizure were recorded.
Seizure level of mice were referred to a modified Racine scale:
I stage: rhythmical mouth, ears and facial twitch and spasm;
II stage: nodding and more serious facial twitch and spasm;
III stage: clonus of forelimb occurs, without up-right;
IV stage: rearing with forelimb clonus;
V stage: stiffness clonus occurs in the whole body, and falling.

In the case of `CCn1cc(-c2cccc(C(F)(F)F)c2)c2sc(C(=N)NC3CCS(=O)(=O)CC3)cc2c1=O` [I-BRD9], the “seizure level (modified Racine scale)” value (FIG. 1) is on record as “obviously reduced seizure level”. Also, the epilepsy susceptibility entry (FIG. 2) is recorded as “reduced epilepsy susceptibility”. Further, where the note is “FIG. 3”, the “incubation period (onset time of epilepsy)” value is “postpone the onset time of epilepsy”.
